From PubChem BioAssay AID624374 (Broad Institute, 2012) come the findings set out here.

Molecules are shown by their SMILES. Results filed as inconclusive are left out. The source made the active and inactive calls. How the calls were made is not given here. Some results are limits rather than exact numbers.

For the first experiment, the system named is HEK293 viability counterscreen, plate reader. Briefly: HEK293 cell viability, dose response, counter-screen for EBV LMP1 inhibitor project, dry powder, set 2 (AID 624374).
Conditions: not given
Turning to `O=C(C[C@@H]1C[C@@H]2c3cc(NS(=O)(=O)c4ccc(F)cc4)ccc3O[C@@H]2[C@@H](CO)O1)NCc1ccc(Oc2ccccc2)cc1`, the AC35 is 20.8 µM.
As to `O=C(C[C@H]1C[C@@H]2c3cc(NS(=O)(=O)c4ccc(F)cc4)ccc3O[C@@H]2[C@@H](CO)O1)NCc1ccc(Oc2ccccc2)cc1`, the AC35 was 23.1 µM.
For the compound `COc1ccccc1CNC(=O)C[C@@H]1C[C@H]2c3cc(NC(=O)c4ccc5c(c4)OCO5)ccc3O[C@H]2[C@H](CO)O1`, the AC35 is > 35 µM (inactive).
Consider `Cc1ccc(S(=O)(=O)N(C)C[C@H]2Oc3cc(C#Cc4ccncc4)ccc3S(=O)(=O)N([C@@H](C)CO)C[C@@H]2C)cc1`, for which the AC35 is > 35 µM (inactive).
Turning to `C[C@H](CO)N1C[C@H](C)[C@@H](CN(C)Cc2ccc(C(F)(F)F)cc2)Oc2ccc(NC(=O)Cc3ccccc3)cc2CC1=O`, the AC35 is > 35 µM (inactive).
For `CC(C)(C)[S@@](=O)N1Cc2cc(C(=O)NCc3ccccc3F)nc(-c3cccc(-c4ccncc4)c3)c2[C@H]1CCO`, the AC35 was > 35 µM (inactive).
For `O=C(C[C@@H]1C[C@@H]2c3cc(NC(=O)c4ccc5c(c4)OCO5)ccc3O[C@@H]2[C@@H](CO)O1)NCc1ccc(Oc2ccccc2)cc1`, the AC35 is 33.8 µM.
For the compound `Cc1cc(C(=O)Nc2ccc3c(c2)C(=O)N(C)[C@@H]2CC[C@@H](CC(=O)NCc4ccc(-c5ccccc5)cc4)O[C@H]2CO3)no1`, the AC35 is > 35 µM (inactive).

Test system in a further experiment: not listed separately
Described as above. To be noted: HEK293 viability counterscreen, plate reader; at 35 µM (top of the series).
Take `COc1ccccc1C#Cc1cnc2c(c1)C(=O)N([C@@H](C)CO)C[C@H](C)[C@@H](CN(C)C(=O)c1ccc3c(c1)OCO3)O2`: the activity change, negative = viability loss was 9.4% (inactive).
